We go through 13 compounds from US20110015181A1, “ALKYLAMINOPYRIDINE DERIVATIVE” (priority 2008, published 2011).

Series [1] addresses T1, human NPY Y1 receptor (Homo sapiens, UniProt P25929).
T1 construct: expressed in transfected cells; host or cells: CHO-K1 NFAT β-Lactamase (Aurora)
T1 sequence (P25929 1-384): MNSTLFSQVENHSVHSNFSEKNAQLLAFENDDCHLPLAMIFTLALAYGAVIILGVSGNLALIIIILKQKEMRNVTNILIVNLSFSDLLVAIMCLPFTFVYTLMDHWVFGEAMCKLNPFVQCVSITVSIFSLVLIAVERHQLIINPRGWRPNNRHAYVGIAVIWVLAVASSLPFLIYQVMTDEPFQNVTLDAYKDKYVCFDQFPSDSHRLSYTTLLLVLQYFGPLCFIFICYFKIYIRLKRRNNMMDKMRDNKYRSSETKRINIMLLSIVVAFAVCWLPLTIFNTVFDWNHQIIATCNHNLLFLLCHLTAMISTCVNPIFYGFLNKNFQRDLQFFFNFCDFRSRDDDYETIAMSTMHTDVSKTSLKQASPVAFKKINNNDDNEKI
In words: NPY binding inhibition test ([125I] peptide YY binding to membranes of NPY Y1 receptor expression cells). Particulars: membrane of CHO-K1 cells expressing human NPY Y1 receptor, 25° C., 2 hours; read-out: IC50 against specific [125I] peptide YY binding. As for the experimental part: A cDNA sequence encoding a human NPY Y1 receptor [Accession No. L07615] was cloned into expression vectors pEF1x (made by Invitrogen Inc.). The obtained expression vectors were transfected to host cells CHO-K1 NFAT β-Lactamase (Aurora) by cationic lipid method [see Proceedings of the National Academy of Sciences of the United States of America, 84: 7413 (1987)] to give NPY Y1 receptor expression cells.
A membrane sample prepared from the cells which expressed the NPY Yl receptor was incubated together with a test compound and [^125I] peptide YY (manufactured by Amersham) (20,000 cpm) in an assay buffer (HBSS buffer (pH 7.4) containing 20 mM HEPES, 0.5% BSA, 1 mM phenylmethylsulfonylfluoride and 0.1% bacitracin) at 25° C. for 2 hours, then filtered through a glass filter GF/C, and washed with 20 mM HEPES buffer (pH 7.4), followed by measuring the radioactivity of the cake on the glass filter with γ counter. Nonspecific binding was measured in the presence of 1 μM peptide YY and a 50% Inhibitory Concentration (IC50) of the test compound against specific [^125I] peptide YY binding was determined [Endocrinology, 131: 2090 (1992)].

The target in series [2] is human ERG (hERG) (Homo sapiens, UniProt Q12809). In words: Affinity for human ERG (hERG). In kind it is binding. The procedure: In addition, the affinities of compounds according to the present invention and compounds described in Patent Document 7 described above for human ERG (hERG) were examined. This examination method was carried out according to the method described in documents (for example, Japanese Unexamined Patent Application Publication No. 2004-512268).
Chain of human ERG (hERG) (Q12809 whole entry): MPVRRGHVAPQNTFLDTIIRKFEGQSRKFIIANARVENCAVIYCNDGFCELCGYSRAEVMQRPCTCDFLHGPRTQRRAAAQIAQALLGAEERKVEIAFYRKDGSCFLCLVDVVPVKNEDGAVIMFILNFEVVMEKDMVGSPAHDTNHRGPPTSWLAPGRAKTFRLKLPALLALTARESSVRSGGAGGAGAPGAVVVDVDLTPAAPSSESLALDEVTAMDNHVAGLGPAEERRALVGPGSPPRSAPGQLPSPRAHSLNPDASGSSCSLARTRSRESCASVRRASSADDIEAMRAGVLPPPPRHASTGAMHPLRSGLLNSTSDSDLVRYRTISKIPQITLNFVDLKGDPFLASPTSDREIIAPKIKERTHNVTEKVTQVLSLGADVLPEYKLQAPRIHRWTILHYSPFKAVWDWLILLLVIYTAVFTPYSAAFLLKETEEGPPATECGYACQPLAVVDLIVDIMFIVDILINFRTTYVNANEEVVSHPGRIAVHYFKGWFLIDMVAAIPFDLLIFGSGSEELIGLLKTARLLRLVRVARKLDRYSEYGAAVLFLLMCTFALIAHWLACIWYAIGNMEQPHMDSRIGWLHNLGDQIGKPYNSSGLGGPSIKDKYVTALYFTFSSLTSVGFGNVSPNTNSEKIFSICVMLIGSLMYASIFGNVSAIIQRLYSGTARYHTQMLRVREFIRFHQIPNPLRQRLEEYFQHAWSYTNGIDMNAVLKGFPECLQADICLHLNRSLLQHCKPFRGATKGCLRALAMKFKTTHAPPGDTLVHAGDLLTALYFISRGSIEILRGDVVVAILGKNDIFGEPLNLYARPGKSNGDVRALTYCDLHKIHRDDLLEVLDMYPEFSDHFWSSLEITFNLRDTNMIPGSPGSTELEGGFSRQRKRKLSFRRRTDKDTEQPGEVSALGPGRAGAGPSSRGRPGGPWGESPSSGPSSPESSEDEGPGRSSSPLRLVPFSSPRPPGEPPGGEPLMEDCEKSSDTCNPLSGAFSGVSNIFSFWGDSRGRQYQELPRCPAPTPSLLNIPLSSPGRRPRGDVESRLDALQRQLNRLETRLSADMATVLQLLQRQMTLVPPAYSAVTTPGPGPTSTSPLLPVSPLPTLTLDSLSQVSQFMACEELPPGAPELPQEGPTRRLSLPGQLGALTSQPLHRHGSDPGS

The mark [3] stands for this setting: compounds according to the present invention.
Setting [4] is: compounds described in Patent Document 7 (WO 97/34873).

`CCc1oc(CC(O)c2cc(N3C4CCC3COC4)cc(NCC(F)(F)F)n2)nc1C` (single isomer, unassigned) [Example 21]: in series [1], the IC50 worked out at 26 nM. For the same compound, the “Activity for Human ERG” value in series [2] (setting [3]) is 14 µM.

As for `Cc1nc(SCc2cc(N3C4CCC3COC4)cc(NCC#N)n2)sc1C` [Example 1], the half-maximal inhibitory concentration (IC50) in series [1] came out at 16 nM. Further, the “Activity for Human ERG” value in series [2] (setting [3]) came to 33 µM. In the same order, the values of `Cc1nc(SCc2cc(N3CCC(F)(F)CC3)cc(NCC(F)(F)F)n2)nn1C` [Example 5, 4-(4,4-difluoro-1-piperidinyl)-6-{[(1,5-dimethyl-1H-1,2,4-triazol-3-yl)thio]methyl}-N-(2,2,2-trifluoroethyl)-2-pyridinamine] are 17 nM and 16 µM.

For `Cc1cc(SCc2cc(N3CCC(F)(F)CC3)cc(NCC(F)(F)F)n2)nn1C` [Example 9, 4-(4,4-difluoro-1-piperidinyl)-6-{[(1,5-dimethyl-1H-pyrazol-3-yl)thio]methyl}-N-(2,2,2-trifluoroethyl)-2-pyridinamine], in series [1], the 50% inhibitory concentration (IC50) amounted to 2.2 nM. The “Activity for Human ERG” value in series [2] (setting [3]) came out at 5.3 µM. In the same order, the values of `O=S1(=O)CCN(c2cc(CSc3nc4c(o3)CCCC4)nc(NCC(F)(F)F)c2)CC1` [Example 12] are 27.5 nM and 14 µM. For `Cc1nc(SCc2cc(N3CCCCCC3)cc(NCC(F)(F)F)n2)cn1C` [Example 13, 4-(1-azepanyl)-6-{[(1,2-dimethyl-1H-imidazol-4-yl)thio]methyl}-N-(2,2,2-trifluoroethyl)-2-pyridinamine], the IC50 in series [1] was found to be 44 nM. Besides, the “Activity for Human ERG” value in series [2] (setting [3]) turned out to be 8.2 µM. For `Cc1cc(CCc2cc(N3CCC(F)(F)CC3)cc(NCC#N)n2)nn1C` [Example 32, ({4-(4,4-difluoro-1-piperidinyl)-6-[2-(1,5-dimethyl-1H-pyrazol-3-yl)ethyl]-2-pyridinyl}amino)acetonitrile], the IC50 in series [1] is 10 nM. In addition, the “Activity for Human ERG” value in series [2] (setting [3]) was 11 µM. In the same order, the values of `Cc1nc(SCc2cc(N3CCSCC3)cc(NCC#N)n2)n(C)c1C` [Example 34, [(4-(4-thiomorpholinyl)-6-{[(1,4,5-trimethyl-1H-imidazol-2-yl)thio]methyl}-2-pyridinyl)amino]acetonitrile] are 6.5 nM and 7.3 µM. In the same order, the values of `COC(=O)CNc1cc(N2C3CCC2COC3)cc(CSc2nc(C)c(C)s2)n1` [Example 38, {[6-{[(4,5-dimethyl-1,3-thiazol-2-yl)thio]methyl}-4-(3-oxa-8-azabicyclo[3,2,1]octo-8-yl)-2-pyridinyl]amino}acetic acid methyl ester] are 2.8 nM and 7.4 µM. The matching figures for `Cc1nc(SCc2cc(N3CCC(F)(F)CC3)cc(NCCS(C)(=O)=O)n2)oc1C` [Example 48, 4-(4,4-difluoro-1-piperidinyl)-6-{[(4,5-dimethyl-1,3-oxazol-2-yl)thio]methyl}-N-[2-(methylsulfonyl)ethyl]-2-pyridinamine]: 16 nM and 5.9 µM. Take `CCc1nnc(SCc2cc(N3CCOCC3)cc(NCc3cccc(NC(C)=O)c3)n2)s1` [reference compound]: the “Activity for Human ERG” value in series [2] (setting [4]) is 0.57 µM. For the compound `CCc1nnc(SCc2cc(N3CCOCC3)cc(NCc3cccc(O)c3)n2)s1` [reference compound], the “Activity for Human ERG” value in series [2] (setting [4]) was 0.16 µM. In the case of `CCc1nnc(SCc2cc(N3CCOCC3)cc(NCc3cccc(OC)c3)n2)s1` [reference compound], the “Activity for Human ERG” value in series [2] (setting [4]) was determined as 0.028 µM.
